Laboratory results published in ChEMBL document CHEMBL1201861, “Genomics of Drug Sensitity in Cancer screening data, Wellcome Trust Sanger Institute”.

What was measured:
Assay in all cases: cells
[1] = system: no-11; assay type: functional, cell-based, Homo sapiens; settings: Homo sapiens;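 further: growth inhibition of human NO-11 cells, read out with a cell viability assay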
Description: SANGER: Inhibition of human no-11 cell growth in a cell viability assay.

[2] = system: NCI-H358; assay type: functional, cell-based, Homo sapiens; settings: Homo sapiens, NCI-H358;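 further: growth inhibition of NCI-H358 human cells, read out with a cell viability assay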
Description: SANGER: Inhibition of human NCI-H358 cell growth in a cell viability assay.

[3] = system: S-117; assay type: functional, cell-based, Homo sapiens; settings: Homo sapiens, S-117
Description: SANGER: Inhibition of human S-117 cell growth in a cell viability assay.

[4] = system: SK-HEP1; assay type: functional, cell-based, Homo sapiens, SK-HEP-1; settings: Homo sapiens, SK-HEP1;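 further: cell viability readout used to quantify reduction in proliferation of human SK-HEP-1 cells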
Description: SANGER: Inhibition of human SK-HEP-1 cell growth in a cell viability assay.

[5] = system: UACC-257; assay type: functional, cell-based, Homo sapiens; settings: Homo sapiens, UACC-257
Description: SANGER: Inhibition of human UACC-257 cell growth in a cell viability assay.

[6] = system: NCI-H661; assay type: functional, cell-based, Homo sapiens; settings: Homo sapiens, NCI-H661;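 further: cell viability assay read-out, IC50 being the concentration that inhibits growth of the cells by half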
Description: SANGER: Inhibition of human NCI-H661 cell growth in a cell viability assay.

[7] = system: T47D; assay type: functional, cell-based, Homo sapiens; settings: Homo sapiens, T47D;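 further: growth inhibition of human T47D cells, measured with a cell viability assay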
Description: SANGER: Inhibition of human T47D cell growth in a cell viability assay.

[8] = system: CAL-62; assay type: functional, cell-based, Homo sapiens; settings: Homo sapiens, CAL-62;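 further: growth inhibition of CAL-62 cells, read out with a cell viability assay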
Description: SANGER: Inhibition of human CAL-62 cell growth in a cell viability assay.

[9] = system: NCI-H1693; assay type: functional, cell-based, Homo sapiens; settings: Homo sapiens, NCI-H1693;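 further: growth inhibition of the human cell line, read out with a cell viability assay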
Description: SANGER: Inhibition of human NCI-H1693 cell growth in a cell viability assay.

[10] = system: NCI-H23; assay type: functional, cell-based, Homo sapiens; settings: Homo sapiens, NCI-H23;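 further: cell viability assay measuring growth inhibition of NCI-H23 cells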
Description: SANGER: Inhibition of human NCI-H23 cell growth in a cell viability assay.

[11] = system: HT-144; assay type: functional, cell-based, Homo sapiens; settings: Homo sapiens, HT-144
Description: SANGER: Inhibition of human HT-144 cell growth in a cell viability assay.

[12] = system: UMUC3; assay type: functional, cell-based, Homo sapiens; settings: Homo sapiens, UMUC3;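 further: growth inhibition of human UM-UC-3 cells, read out with a cell viability assay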
Description: SANGER: Inhibition of human UM-UC-3 cell growth in a cell viability assay.

[13] = system: JAR; assay type: functional, cell-based, Homo sapiens; settings: Homo sapiens, JAR;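 further: growth inhibition of human JAR cells determined with a cell viability assay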
Description: SANGER: Inhibition of human JAR cell growth in a cell viability assay.

[14] = system: NCI-H2228; assay type: functional, cell-based, Homo sapiens; settings: Homo sapiens, NCI-H2228;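 further: growth inhibition of human NCI-H2228 cells, read out by a cell viability assay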
Description: SANGER: Inhibition of human NCI-H2228 cell growth in a cell viability assay.

[15] = system: CaR-1; assay type: functional, cell-based, Homo sapiens; settings: Homo sapiens, CaR-1;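 further: growth inhibition of human CaR-1 cancer cells, read out with a cell viability assay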
Description: SANGER: Inhibition of human CaR-1 cell growth in a cell viability assay.

[16] = system: Calu-3; assay type: functional, cell-based, Homo sapiens; settings: Homo sapiens, Calu-3;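 further: growth inhibition of human Calu-3 cells, determined with a cell viability assay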
Description: SANGER: Inhibition of human Calu-3 cell growth in a cell viability assay.

[17] = system: ACN; assay type: functional, cell-based, Homo sapiens; settings: Homo sapiens, ACN;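 further: growth inhibition of the human ACN cell line, read out via cell viability testing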
Description: SANGER: Inhibition of human ACN cell growth in a cell viability assay.

[18] = system: HPAF-II; assay type: functional, cell-based, Homo sapiens; settings: Homo sapiens, HPAF-II;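 further: growth inhibition of HPAF-II cells, read out with a cell viability assay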
Description: SANGER: Inhibition of human HPAF-II cell growth in a cell viability assay.

[19] = system: ChaGo-K-1; assay type: functional, cell-based; settings: Homo sapiens;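 further: growth inhibition of ChaGo-K-1 cells, read out with a cell viability assay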
Description: SANGER: Inhibition of human ChaGo-K-1 cell growth in a cell viability assay.

[20] = system: NCI-H526; assay type: functional, cell-based; settings: Homo sapiens;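 further: growth inhibition of the human NCI-H526 cell line, measured by a cell viability assay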
Description: SANGER: Inhibition of human NCI-H526 cell growth in a cell viability assay.

[21] = system: RVH-421; assay type: functional, cell-based, Homo sapiens; settings: Homo sapiens, RVH-421
Description: SANGER: Inhibition of human RVH-421 cell growth in a cell viability assay.

[22] = system: OVCAR-8; assay type: functional, cell-based, Homo sapiens; settings: Homo sapiens, OVCAR-8;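 further: growth inhibition of human OVCAR-8 cells, read out by a cell viability assay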
Description: SANGER: Inhibition of human OVCAR-8 cell growth in a cell viability assay.

[23] = system: MZ2-MEL; assay type: functional, cell-based, Homo sapiens; settings: Homo sapiens, MZ2-MEL;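 further: growth inhibition of MZ2-MEL cells read out with a cell viability assay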
Description: SANGER: Inhibition of human MZ2-MEL cell growth in a cell viability assay.

[24] = system: HT1197; assay type: functional, cell-based, Homo sapiens, HT-1197; settings: Homo sapiens, HT1197
Description: SANGER: Inhibition of human HT-1197 cell growth in a cell viability assay.

[25] = system: BB65-RCC; assay type: functional, cell-based, Homo sapiens; settings: Homo sapiens, BB65-RCC;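 further: growth inhibition of the cell line, measured with a cell viability assay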
Description: SANGER: Inhibition of human BB65-RCC cell growth in a cell viability assay.

[26] = system: HCT-116; assay type: functional, cell-based, Homo sapiens; settings: Homo sapiens, HCT-116
Description: SANGER: Inhibition of human HCT-116 cell growth in a cell viability assay.

[27] = system: KARPAS-299; assay type: functional, cell-based; settings: Homo sapiens
Description: SANGER: Inhibition of human KARPAS-299 cell growth in a cell viability assay.

[28] = system: SK-LMS-1; assay type: functional, cell-based, Homo sapiens; settings: Homo sapiens, SK-LMS-1;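 further: growth inhibition of human SK-LMS-1 cells, read out with a cell viability assay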
Description: SANGER: Inhibition of human SK-LMS-1 cell growth in a cell viability assay.

[29] = system: D-542MG; assay type: functional, cell-based, Homo sapiens; settings: Homo sapiens, D-542MG
Description: SANGER: Inhibition of human D-542MG cell growth in a cell viability assay.

[30] = system: NCI-H1770; assay type: functional, cell-based; settings: Homo sapiens;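 further: growth inhibition of NCI-H1770 cells determined with a viability readout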
Description: SANGER: Inhibition of human NCI-H1770 cell growth in a cell viability assay.

[31] = system: TE-5; assay type: functional, cell-based, Homo sapiens; settings: Homo sapiens, TE-5;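 further: inhibition of cell growth, read out by a cell viability assay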
Description: SANGER: Inhibition of human TE-5 cell growth in a cell viability assay.

[32] = system: COLO-684; assay type: functional, cell-based; settings: Homo sapiens
Description: SANGER: Inhibition of human COLO-684 cell growth in a cell viability assay.

[33] = system: SNU1; assay type: functional, cell-based; settings: Homo sapiens;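 further: growth inhibition of human NCI-SNU-1 cells, measured with a cell viability assay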
Description: SANGER: Inhibition of human NCI-SNU-1 cell growth in a cell viability assay.

[34] = system: NCI-H650; assay type: functional, cell-based, Homo sapiens; settings: Homo sapiens, NCI-H650;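 further: growth inhibition of NCI-H650 cells, read out by a viability assay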
Description: SANGER: Inhibition of human NCI-H650 cell growth in a cell viability assay.

[35] = system: LNCaP-Clone-FGC; assay type: functional, cell-based, Homo sapiens; settings: Homo sapiens, LNCaP-Clone-FGC
Description: SANGER: Inhibition of human LNCaP-Clone-FGC cell growth in a cell viability assay.

[36] = system: SW872; assay type: functional, cell-based, Homo sapiens; settings: Homo sapiens, SW872;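 further: growth inhibition of SW872 cells, read out by a viability assay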
Description: SANGER: Inhibition of human SW872 cell growth in a cell viability assay.

[37] = system: C3A; assay type: functional, cell-based, Homo sapiens; settings: Homo sapiens, C3A;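 further: growth inhibition of C3A human cells, quantified with a cell viability readout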
Description: SANGER: Inhibition of human C3A cell growth in a cell viability assay.

[38] = system: DEL; assay type: functional, cell-based; settings: Homo sapiens;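 further: growth inhibition of the human DEL cell line, read out with a cell viability assay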
Description: SANGER: Inhibition of human DEL cell growth in a cell viability assay.

[39] = system: HEC-1; assay type: functional, cell-based, Homo sapiens; settings: Homo sapiens, HEC-1;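 further: growth inhibition of the cell line, read out with a cell viability assay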
Description: SANGER: Inhibition of human HEC-1 cell growth in a cell viability assay.

[40] = system: TE-8; assay type: functional, cell-based, Homo sapiens; settings: Homo sapiens, TE-8;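 further: growth inhibition of TE-8 cells, measured with a cell viability readout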
Description: SANGER: Inhibition of human TE-8 cell growth in a cell viability assay.

[41] = system: RMG-I; assay type: functional, cell-based, Homo sapiens; settings: Homo sapiens, RMG-I;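 further: growth inhibition of human RMG-I cells, read out with a cell viability assay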
Description: SANGER: Inhibition of human RMG-I cell growth in a cell viability assay.

[42] = system: COLO-829; assay type: functional, cell-based, Homo sapiens; settings: Homo sapiens, COLO-829
Description: SANGER: Inhibition of human COLO-829 cell growth in a cell viability assay.

[43] = system: SK-MEL-1; assay type: functional, cell-based; settings: Homo sapiens;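 further: growth inhibition of human SK-MEL-1 cells, read out by a cell viability assay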
Description: SANGER: Inhibition of human SK-MEL-1 cell growth in a cell viability assay.

[44] = system: NCI-H1563; assay type: functional, cell-based, Homo sapiens; settings: Homo sapiens, NCI-H1563;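 further: growth inhibition of human NCI-H1563 cells, read out with a cell viability assay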
Description: SANGER: Inhibition of human NCI-H1563 cell growth in a cell viability assay.

[45] = system: BEN; assay type: functional, cell-based, Homo sapiens; settings: Homo sapiens, BEN;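 further: growth inhibition of the BEN cell line, read out with a cell viability assay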
Description: SANGER: Inhibition of human BEN cell growth in a cell viability assay.

[46] = system: ACHN; assay type: functional, cell-based, Homo sapiens; settings: Homo sapiens, ACHN;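 further: cell viability read-out used to gauge how strongly growth of human ACHN cells is suppressed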
Description: SANGER: Inhibition of human ACHN cell growth in a cell viability assay.

[47] = system: DU-4475; assay type: functional, cell-based; settings: Homo sapiens
Description: SANGER: Inhibition of human DU-4475 cell growth in a cell viability assay.

[48] = system: A-431; assay type: functional, cell-based, Homo sapiens; settings: Homo sapiens, A-431;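 further: growth inhibition of A-431 cells, determined with a cell viability read-out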
Description: SANGER: Inhibition of human A431 cell growth in a cell viability assay.

[49] = system: PFSK-1; assay type: functional, cell-based, Homo sapiens; settings: Homo sapiens, PFSK-1;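 further: cell viability assay measuring how strongly compounds suppress growth of human PFSK-1 cells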
Description: SANGER: Inhibition of human PFSK-1 cell growth in a cell viability assay.

[50] = system: NCI-H209; assay type: functional, cell-based; settings: Homo sapiens;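 further: growth inhibition of human NCI-H209 cells, measured by a cell viability assay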
Description: SANGER: Inhibition of human NCI-H209 cell growth in a cell viability assay.

[51] = system: HL-60; assay type: functional, cell-based; settings: Homo sapiens;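 further: growth inhibition of human HL-60 cells, read out with a cell viability assay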
Description: SANGER: Inhibition of human HL-60 cell growth in a cell viability assay.

SMILES: CN(c1ncccc1CNc1nc(Nc2ccc3c(c2)CC(=O)N3)ncc1C(F)(F)F)S(C)(=O)=O [PF-00562271]
- IC50 [1]: > 2560 nM
- IC50 [2]: > 2560 nM
- IC50 [3]: > 2560 nM
- IC50 [4]: > 2560 nM
- IC50 [5]: > 2560 nM
- IC50 [6]: > 2560 nM
- IC50 [7]: > 2560 nM
- IC50 [8]: 1320 nM
- IC50 [9]: > 2560 nM
- IC50 [10]: > 2560 nM
- IC50 [11]: > 2560 nM
- IC50 [12]: > 2560 nM
- IC50 [13]: > 2560 nM
- IC50 [14]: > 2560 nM
- IC50 [15]: > 2560 nM
- IC50 [16]: > 2560 nM
- IC50 [17]: 2350 nM
- IC50 [18]: > 2560 nM
- IC50 [19]: > 2560 nM
- IC50 [20]: > 2560 nM
- IC50 [21]: > 2560 nM
- IC50 [22]: > 2560 nM
- IC50 [23]: > 2560 nM
- IC50 [24]: > 2560 nM
- IC50 [25]: > 2560 nM
- IC50 [26]: > 2560 nM
- IC50 [27]: > 2560 nM
- IC50 [28]: > 2560 nM
- IC50 [29]: > 2560 nM
- IC50 [30]: > 2560 nM
- IC50 [31]: > 2560 nM
- IC50 [32]: > 2560 nM
- IC50 [33]: > 2560 nM
- IC50 [34]: 832 nM
- IC50 [35]: > 2560 nM
- IC50 [36]: > 2560 nM
- IC50 [37]: > 2560 nM
- IC50 [38]: > 2560 nM
- IC50 [39]: > 2560 nM
- IC50 [40]: > 2560 nM
- IC50 [41]: > 2560 nM
- IC50 [42]: 752 nM
- IC50 [43]: > 2560 nM
- IC50 [44]: > 2560 nM
- IC50 [45]: > 2560 nM
- IC50 [46]: > 2560 nM
- IC50 [47]: 2150 nM
- IC50 [48]: > 2560 nM
- IC50 [49]: > 2560 nM
- IC50 [50]: > 2560 nM
- IC50 [51]: > 2560 nM

SMILES: C=CCNC1=C2C[C@@H](C)C[C@H](OC)[C@H](O)[C@@H](C)/C=C(\C)[C@H](OC(N)=O)[C@@H](OC)/C=C\C=C(/C)C(=O)NC(=CC1=O)C2=O [TANESPIMYCIN]
- IC50 [1]: 370 nM
- IC50 [2]: 687 nM
- IC50 [3]: 206 nM
- IC50 [4]: > 1000 nM
- IC50 [5]: 822 nM
- IC50 [6]: 611 nM
- IC50 [7]: > 1000 nM
- IC50 [8]: 162 nM
- IC50 [9]: > 1000 nM
- IC50 [10]: 26.6 nM
- IC50 [11]: 30.9 nM
- IC50 [12]: 455 nM
- IC50 [13]: > 1000 nM
- IC50 [14]: 354 nM
- IC50 [15]: 45.5 nM
- IC50 [16]: > 1000 nM
- IC50 [17]: 41.6 nM
- IC50 [18]: 213 nM
- IC50 [19]: 317 nM
- IC50 [20]: > 1000 nM
- IC50 [21]: 191 nM
- IC50 [22]: 86.2 nM
- IC50 [23]: 65.5 nM
- IC50 [24]: > 1000 nM
- IC50 [25]: 106 nM
- IC50 [26]: 266 nM
- IC50 [27]: > 1000 nM
- IC50 [28]: > 1000 nM
- IC50 [29]: > 1000 nM
- IC50 [30]: > 1000 nM
- IC50 [31]: > 1000 nM
- IC50 [32]: 345 nM
- IC50 [33]: 2.07 nM
- IC50 [34]: 177 nM
- IC50 [35]: 800 nM
- IC50 [36]: 608 nM
- IC50 [37]: 454 nM
- IC50 [38]: 185 nM
- IC50 [39]: 65.9 nM
- IC50 [40]: 113 nM
- IC50 [41]: > 1000 nM
- IC50 [42]: 120 nM
- IC50 [43]: > 1000 nM
- IC50 [44]: 949 nM
- IC50 [45]: > 1000 nM
- IC50 [46]: 606 nM
- IC50 [47]: 22.6 nM
- IC50 [48]: 82.1 nM
- IC50 [49]: > 1000 nM
- IC50 [50]: > 1000 nM
- IC50 [51]: > 1000 nM
